In patent publication US7842782B2, “Heparanase-derived peptides for vaccination of tumor patients” (Deutsches Krebsforschungszentrum Stiftung Des Öffentlichen …, priority 2003, dated 2010):

Assays:
[1] = test system: peptide-specific T-cells from the bone marrow (BMTCs); test: IFN-γ Enzyme-Linked Immuno Assay (ELISpot); assay type: cell-based, human; settings: for patients significantly reacted against peptide: BMTCs of 15 female breast cancer patients, insulin p34 negative control, 10 μg/ml peptide; for reaction of T cells in ELISpot: vs insulin
Experimental: Mononuclear cells (MNC) from periphery blood (PB) and bone marrow (BM) were isolated via Ficoll gradients (Biocoll separating solution, Biochrom AG). MNC were washed two times with RPMI 1640, transferred to uncoated cell culture dishes, and grown for two hours at 37° C., 5% CO2 in x-VIVO-20 media (BioWhittaker, Walkersville, Md.) for adhesion. Adherent cells were cultivated for 7 day in x-VIVO-20 media with the addition of GM-CSF ([…]; Behringwerke, Marburg) and IL-4 (1000 U/ml; Promocell, Heidelberg). Dendritic cells (DCs) were magnetically isolated via anti-CD-3-coated and anti-CD-19-coated magnetic beads (Dynal). Non-adherent cells were cultivated for 7 days in RPMI 1640 supplemented with 8% human AB sera (Sigma), rhuIL-2 (100 U/ml; Chiron, Ratingen) and IL-4 (60 U/ml). T cells (TCs) were purified via anti-CD-56-coated, anti-CD-19-coated and anti-CD-15-coated magnetic beads.
The number of peptide-specific T-cells from the bone marrow (BMTCs) of female patients is determined by the ELISpot method. For this purpose, a 96-well ELISpot plate (Millipore) is coated with anti-human-IFNγ antibodies (ELISpot Kit, Mabtech) over night at 4° C. and then one hour blocked with RPMI 5% AB sera (37° C., 5% CO2). 10^4 DCs, 10^5 TCs and 10 μg/ml peptide are cultivated on the IFN-γ-coated ELISpot plate for 40 hours (37° C., 5% CO2). Supernatants are discarded and the plate is developed via the ELISpot kit (Mabtech). IFN-γ producing cells are counted with Axioplan Mikroskop (Zeiss) by using the KS ELISpot software. For negative controls, HIV or insulin peptides are used. Each group is determined in triplicate. Positive results are measured via the so-called T-test (p<0.05).

CD8-positive T cells = test: Tetramer staining (HLA-A2/peptide tetramers, flow cytometry); assay type: cell-based, human; settings: 2 examined patients (text summary of Table 4)
Experimental: 10^6 of each BM-MNC and PB-MNC are blocked with 5% endobulin (immunoglobulin G), incubated with tetramers on ice for 45 min and then stained with CD8-FITC (Becton Dickinson). Dead cells are identified by propidium iodide. The number of T-cells which are double positive for CD8 and tetramer are determined by flow cytometry.

Row | Substance | patients significantly reacted against peptide [1] | reaction of T cells in ELISpot ([1]; MaCa patient 503) | reaction of T cells in ELISpot ([1]; MaCa patient 639) | reaction of T cells in ELISpot ([1]; MaCa patient 704) | HLA-A2peptide staining of CD8-positive T cells (CD8-positive T cells) | reaction of T cells in ELISpot ([1]; MaCa patient 579) | reaction of T cells in ELISpot ([1]; MaCa patient 581) | reaction of T cells in ELISpot ([1]; MaCa patient 753) | reaction of T cells in ELISpot ([1]; MaCa patient 790) | reaction of T cells in ELISpot ([1]; MaCa patient 590) | reaction of T cells in ELISpot ([1]; MaCa patient 923)
1 | A L P P P L M L L (ALPPPLMLL) [Hpa p8] | 20% | x (x = positive (p value < 0.05) reaction of T cells in ELISpot) | x (x = positive (p value < 0.05) reaction of T cells in ELISpot) | x (x = positive (p value < 0.05) reaction of T cells in ELISpot) | enriched fractions of CD8-positive T cells |  |  |  |  |  | 
2 | D L I F G L N A L (DLIFGLNAL) [Hpa p183] | 40% | x (x = positive (p value < 0.05) reaction of T cells in ELISpot) | x (x = positive (p value < 0.05) reaction of T cells in ELISpot) |  |  | x (x = positive (p value < 0.05) reaction of T cells in ELISpot) | x (x = positive (p value < 0.05) reaction of T cells in ELISpot) | x (x = positive (p value < 0.05) reaction of T cells in ELISpot) | x (x = positive (p value < 0.05) reaction of T cells in ELISpot) |  | 
3 | L L L G P L G P L (LLLGPLGPL) [Hpa p16] | 33% | x (x = positive (p value < 0.05) reaction of T cells in ELISpot) | x (x = positive (p value < 0.05) reaction of T cells in ELISpot) |  | enriched fractions of CD8-positive T cells | x (x = positive (p value < 0.05) reaction of T cells in ELISpot) |  |  | x (x = positive (p value < 0.05) reaction of T cells in ELISpot) | x (x = positive (p value < 0.05) reaction of T cells in ELISpot) | x (x = positive (p value < 0.05) reaction of T cells in ELISpot)
